From patent publication US8715677B2, “Immunological uses of immunomodulatory compounds for vaccine and anti-infectious disease therapy” (Celgene Corporation, priority 2005, dated 2014)

How the values were obtained:
Type in all cases: cell-based
[1] = tested on: regulatory T cells; assay: Treg suppression of anti-CD3 mAb activated CD4+CD25- cell proliferation; settings: for suppressive function of Treg on anti-CD3 mAb activated CD4+CD25- cells: pre-incubation of Treg with compound
Method: An assay in which the ability of isolated Treg to suppress anti-CD3 mAb activated CD4+CD25− cells was performed.
Regulatory T cells were isolated by the Dynal T regulatory cell isolation kit, and treated for 24 hours with varying concentrations of an immunomodulatory compound (Actimid™ or lenalidomide) or DMSO. The cells were washed and incubated at a 1:2 ratio with CD25^−CD4^+ cells, which were also isolated by the Dynal T regulatory cell isolation kit. Results were expressed as the mean % change in proliferation compared to the cpms obtained from DMSO treated CD25^+ cells incubated with CD25^− cells.

[2] = tested on: Raji cells; assay: Direct effects on NHL tumor cells, alone or with anti CD20 antibodies; settings: for effect in combination with anti CD20 antibody B1: 10 μM / up to 10 μM
Method: Direct effects of IMiDs on NHL tumor cells were tested by treating Raji cells with IMiDs alone, or in combination with anti CD20 antibodies B1 or rituxan. IMiD 1 alone caused up to 40% inhibition of proliferation at 10 μM in Raji cells, which corresponded to G1 arrest.

[3] = tested on: γδ T cells; assay: Apoptosis of γδ T cells (annexin V PE / 7-AAD); settings: with or without IPP; FIG. 6
Method: Gamma delta T cells were treated with a single dose of 25 μM IPP and weekly with 150 U/ml of IL-2 for 4 weeks and 3 days. Cells were then either left untreated or treated with Actimid™, IPP or Actimid™ and IPP. Apoptosis was assessed by staining of cells with annexin V PE and 7-AAD at various time points and analysis using a FACSCalibur.
Gamma delta T cells were treated with a single dose of 25 μM IPP and weekly with 150 U/ml of IL-2 for 31 days. Cells were then either left untreated or treated with Actimid™, IPP, or Actimid™ and IPP in combination. Apoptosis was assessed by staining of cells with annexin V PE and 7-AAD at the stated time points and analysis using a FACSCalibur. Annexin V PE negative/7-AAD negative cells are designated live, annexin V PE positive/7-AAD negative early apoptotic, annexin V PE positive/7-AAD positive late apoptotic and annexin V PE negative/7-AAD positive dead.

[4] = tested on: γδ T cells; assay: Cytokine production by γδ T cells
Method: Purified γδ T cells were stimulated with IPP±IMiDs ([…]) or with the MM cell line RPMI-8226 (±IMiDs ([…])) in 24 well plates and were incubated 8-72 hours. Cell-free supernatants were collected and stored at −70° C. until assayed by ELISA. IFN-γ, TNF-α and IL-2 were measured by ELISA (BD pharmingen). For fresh δγ preps, PBMCs were stimulated with plate bound anti-CD3 (1.25 μg/ml) for 48 hours and the expression of TNF-α, IFNγ, IL-2 and IL-4 were measured by intracellular FACS on cells stained for γδ TCR.
The effects of Actimid™ on IFN-γ, TNF-α, and IL-4 were examined in freshly prepared γδ T cells and γδ T cell lines stimulated with IPP.

[5] = tested on: γδ T cells; assay: IFN-γ production by γδ T cells in co-culture with tumor cells; settings: co-culture with RPMI-8226 MM cells, with or without pamidronate; FIG. 8
Method: Tumor cells pre-incubated with (FIG. 8B) or without (FIG. 8A) pamidronate were incubated with δγ T cells at different tumor (RPMI-8226 MM) to γδ T cells ratios as indicated in FIG. 8. Some of the cells were further treated by Actimid™. Intracellular IFN-gamma production was measured by flow cytometry.

[6] = tested on: RPMI-8226 MM cell lines; assay: Cytotoxicity of γδ T cells, chromium release assay
Method: Gamma delta T cells were treated with a single dose of 25 μM IPP and weekly with 150 U/ml of IL-2 for 3 weeks and 1 day. RPMI-8226 target cells were incubated overnight with 50 μM pamidronate then treated with 3MBq 51Cr. Target, and effector cells were incubated at different ratios and chromium release was assayed after 4 hours. To determine the effects of Actimid™, the compound was either included in the 22 day preincubation before the assay and in the chromium release step, or was included during the chromium release assay.
Gamma delta cells were treated with a single dose of 25 μM IPP and weekly with 150 U/ml of IL-2 for 22 days. RPMI-8226 target cells were incubated overnight with 50 μM pamidronate, then treated with 3 MBq 51 Cr. Target and effector cells were incubated at various ratios with fresh Actimid™ and chromium release assayed after 4 hours. Actimid™ was also added to some wells for the 22 day pretreatment with IL-2 and IPP (FIG. 9A) or just for the 4 hr chromium release assay (FIG. 9B).

[7] = tested on: Rituximab-resistant cell line 2R; assay: Rituximab-mediated ADCC by primed PBMC, 51Cr release, 2R cells; settings: E:T 40:1
Method: (§1) Rituximab-resistant cell lines (RRCL) were generated by chronic exposure of Raji cells to escalating doses of rituximab alone (2R) or along with human complement (4RH). […] To study the effects of lenalidomide-priming of PBMC's against RRCL, peripheral blood mononuclear cells from healthy donors were cultured with either DMSO or lenalidomide (at final concentrations of 10 or 20 μg/ml), with or without IL-2 (20 IU/ml), over a 5-day period at 37° C., 5% CO2. Parentral Raji, and RRCL (2R and 4RH) were labeled with ^51Cr and exposed to either rituximab or trastuzumab (Isotype control at 20 μg/ml) in the presence of an IMiD or control stimulated-PBMCs (Effector:Target ratio of 40:1). ^51Cr release was measured and the percentage of lysis was calculated. Statistical differences were analyzed by chi-square test.

[8] = tested on: Rituximab-resistant cell line 4RH; assay: Rituximab-mediated ADCC by primed PBMC, 51Cr release, 4RH cells
Method: as §1

[9] = tested on: Gab2; assay: Gab2 phosphorylation in anti-CD3/CD28 stimulated Jurkat T cells; settings: at about 1 μM, dose-dependent
Text: The Gab proteins, including Gab1, Gab2 and Gab3 comprise a growing family of phospho-tyrosine regulated scaffolding molecules involved in RTK signal transduction. Phosphorylation of Gab1 in B cells is associated with P13-kinase activity and cell proliferation. While Gab1 is expressed in B cells, only Gab2 is expressed in T cells. Although Gab2 is tyrosine phosphorylated upon TCR activation by ZAP-70, it functions as a negative regulator of TCR signaling via a Shp-2 dependent mechanism. Overexpression of Gab2 in T cells results in the inhibition of IL-2 production (Yamasaki et al., J. Biol. Chem., 2001). The effect of lenalidomide on Gab2 phosphorylation and activation in anti-CD3/CD28 stimulated Jurkat T cells was examined. Lenalidomide inhibited Gab2 phosphorylation dose-dependently (with approximately 50% inhibition at about 1 μM) in a manner that correlated with T cell costimulation and enhancement of IL-2 production.

[10] = tested on: Foxp3; assay: Foxp3 expression in CD4+CD25+ cells (intracellular staining); settings: CD4+CD25+ cells incubated 24 hours; FIG. 3
Method: CD4^+CD25^+ cells were incubated for 24 hours with varying concentrations of DMSO, Actimid™, lenalidomide, or thalidomide and then washed twice with RPMI medium. Cells were stained with CD152-PE, CD4-PERCP, and CD25-APC. Intracellular Foxp3 staining and CD152 staining were carried out after permeabilizing the CD4^+ CD25^+ cells. Results were expressed as percentage of expression of Foxp3 in the CD4^+CD25^+ population or the CD4^+CD25^− population.

[11] = TCR γδ cells within freshly prepared PBMC population

## Nc1cccc2c1C(=O)N(C1CCC(=O)NC1=O)C2=O (centres unmarked) [Actimid, 4-(amino)-2-(2,6-dioxo(3-piperidyl))-isoindoline-1,3-dione]
[1]
  suppressive function of Treg on anti-CD3 mAb activated CD4+CD25- cells: inhibits the suppressive function
[2]; 10 μM
  effect in combination with rituxan: slight additive effect
[2]
  effect in combination with anti CD20 antibody B1: small additive effect
[3]
  apoptosis in γδ T cells: protection against apotosis
[4]; [11]
  production of IFN-γ: enhanced
  production of TNF-α: enhanced
[4]; γδ T cells stimulated with IPP
  production of IFN-γ: enhanced
  production of IL-4: not
[5]
  IFN-γ production by γδ T cells: augmented
[6]; compound added during the 4 hr chromium release assay only, FIG. 9B
  cytotoxicity of γδ T cells toward RPMI-8226 MM cell lines: enhanced
[6]; compound added during the 22 day pretreatment, FIG. 9A
  cytotoxicity of γδ T cells toward RPMI-8226 MM cell lines: enhanced

## Nc1cccc2c1CN(C1CCC(=O)NC1=O)C2=O (centres unmarked) [IMiD]
[7]; PBMC exposed to IMiD for 5 days
  rituximab-mediated ADCC, mean % lysis: 26.9+/−1.18%
[7]; PBMC exposed to IMiD+IL-2 for 5 days
  rituximab-mediated ADCC, mean % lysis: 38.4+/−4.14%
[8]; IMiD exposed PBMC
  mean % of lysis by ADCC: 26.5+/−1.83%
[8]; combination IMiD/IL-2 exposed PBMC
  mean % of lysis by ADCC: 38.4+/−4.1%

## Nc1cccc2c1CN(C1CCC(=O)NC1=O)C2=O (centres unmarked) [lenalidomide, 3-(4-amino-1-oxo-1,3-dihydro-isoindol-2-yl)-piperidine-2,6-dione]
[1]
  suppressive function of Treg on anti-CD3 mAb activated CD4+CD25- cells: inhibits the suppressive function
[2]
  effect in combination with anti CD20 antibody B1: minimal
[9]
  inhibition of Gab2 phosphorylation: approximately 50%

## O=C1CCC(N2C(=O)c3ccccc3C2=O)C(=O)N1 (centres unmarked) [thalidomide, reference compound]
[1]; Treg treated 24 hours, washed, 1:2 ratio with CD25-CD4+ cells, FIG. 2
  proliferation of CD25- cells in the presence of CD25+CD4+ cells, compared to DMSO treated CD4+CD25+ cells: little effect
[10]
  Foxp3 expression: little effects
